Laboratory results: the supplement of paper PMC10307832

Key:
Assay in all cases: relative viability (nuclei count vs DMSO), 5 days (fraction); higher = more cells survive
[1] = compound: CCC1=CN=CN=C1N2CCN(CC2)CC3=NC4=C(N3)C=C(C=C4)C(F)(F)F + CS(=O)(=O)N1CCN(Cc2cc3nc(-c4cccc5[nH]ncc45)nc(N4CCOCC4)c3s2)CC1 [Pictilisib] (partner 1 µM)
In short: (§1)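 For relative viability, nuclei counts in treated wells were divided by those in vehicle wells. Lung cancer cell lines had been pin-tool dosed in 1536-well plates the day after seeding and cultured for 5 days, then fixed and stained in one step (final 0.05% Triton X-100, 1% formaldehyde, 1 ug/ml Hoechst) and imaged at 4×. Doses were one drug alone or a fixed anchor-drug dose plus five library-drug doses (not always all listed) in √10 steps, and values are duplicate-plate medians.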

Mirin + Trametinib = compound: N=C1NC(=O)/C(=C/c2ccc(O)cc2)S1 [Mirin] + CC(=O)Nc1cccc(-n2c(=O)n(C3CC3)c(=O)c3c(Nc4ccc(I)cc4F)n(C)c(=O)c(C)c32)c1 [Trametinib] (partner 0.02 µM)
In short: as §1

Mirin + Palbociclib = compound: N=C1NC(=O)/C(=C/c2ccc(O)cc2)S1 [Mirin] + CC(=O)c1c(C)c2cnc(Nc3ccc(N4CCNCC4)cn3)nc2n(C2CCCC2)c1=O [Palbociclib] (partner 0.5 µM)
In short: as §1

Mirin + AZD7762 = compound: N=C1NC(=O)/C(=C/c2ccc(O)cc2)S1 [Mirin] + NC(=O)Nc1cc(-c2cccc(F)c2)sc1C(=O)N[C@H]1CCCNC1 [AZD7762] (partner 0.2 µM)
In short: as §1

Row | Cell Line | relative viability ([1]; first compound 0.04 µM) | relative viability ([1]; first compound 0.1265 µM) | relative viability ([1]; first compound 0.4 µM) | relative viability ([1]; first compound 1.265 µM) | relative viability ([1]; first compound 4 µM) | relative viability (Mirin + Trametinib; first compound 0.25 µM) | relative viability (Mirin + Trametinib; first compound 0.7906 µM) | relative viability (Mirin + Trametinib; first compound 2.5 µM) | relative viability (Mirin + Trametinib; first compound 7.906 µM) | relative viability (Mirin + Trametinib; first compound 25 µM) | relative viability (Mirin + Palbociclib; first compound 0.25 µM) | relative viability (Mirin + Palbociclib; first compound 0.7906 µM) | relative viability (Mirin + Palbociclib; first compound 2.5 µM) | relative viability (Mirin + Palbociclib; first compound 7.906 µM) | relative viability (Mirin + Palbociclib; first compound 25 µM) | relative viability (Mirin + AZD7762; first compound 0.25 µM) | relative viability (Mirin + AZD7762; first compound 0.7906 µM) | relative viability (Mirin + AZD7762; first compound 2.5 µM) | relative viability (Mirin + AZD7762; first compound 7.906 µM) | relative viability (Mirin + AZD7762; first compound 25 µM)
1 | LCLC-103H | 0.599 | 0.614 | 0.499 | 0.435 | 0.559 | 0.744 | 0.799 | 0.735 | 0.735 | 0.833 | 0.421 | 0.518 | 0.515 | 0.458 | 0.451 | 0.875 | 0.779 | 0.784 | 0.844 | 0.803
2 | LK-2 | 0.575 | 0.462 | 0.436 | 0.42 | 0.56 | 0.653 | 0.577 | 0.609 | 0.421 | 0.42 | 0.538 |  | 0.774 | 0.463 | 0.188 | 0.22 |  | 0.338 | 0.209 | 0.185
3 | LOU-NH91 | 0.501 | 0.533 | 0.54 | 0.47 | 0.551 | 0.789 | 0.809 | 0.795 | 0.823 | 1.01 | 0.548 | 0.569 | 0.529 | 0.519 | 0.555 | 0.799 | 0.782 | 0.754 | 0.713 | 0.854
4 | LU99A | 0.369 | 0.287 | 0.363 | 0.346 | 0.321 | 0.515 | 0.496 | 0.56 | 0.395 | 0.55 | 0.412 | 0.339 | 0.425 | 0.358 | 0.339 | 0.351 | 0.349 | 0.355 | 0.294 | 0.28
5 | LXF-289 | 0.744 | 0.793 | 0.762 | 0.646 | 0.754 | 0.694 | 0.726 | 0.635 | 0.665 | 0.828 | 0.585 | 0.648 | 0.591 | 0.623 | 0.701 | 1.07 | 1.3 | 1.16 | 1.36 | 1.47
6 | NCI-H23 | 0.58 | 0.439 | 0.41 | 0.348 | 0.432 | 0.358 |  | 0.384 | 0.279 | 0.298 | 0.548 |  | 0.519 | 0.49 | 0.524 | 0.221 |  | 0.259 | 0.198 | 0.131
7 | NCI-H322M | 0.581 | 0.484 | 0.507 | 0.381 | 0.524 | 0.497 | 0.506 | 0.555 | 0.564 | 0.571 | 0.466 | 0.497 | 0.521 | 0.553 | 0.522 | 0.508 | 0.653 | 0.51 | 0.551 | 0.57
8 | NCI-H358 | 0.4 | 0.282 | 0.349 | 0.289 | 0.359 | 0.123 | 0.146 | 0.163 | 0.11 | 0.13 | 0.127 | 0.145 | 0.148 | 0.139 | 0.199 | 0.584 | 0.569 | 0.528 | 0.442 | 0.369
9 | NCI-H441 | 0.571 | 0.435 | 0.451 | 0.435 | 0.418 | 0.528 | 0.404 | 0.428 | 0.557 | 0.508 | 0.259 | 0.232 | 0.241 | 0.242 | 0.175 | 1.36 | 1.05 | 1.23 | 1.2 | 1.18
10 | NCI-H460 | 0.41 | 0.291 | 0.36 | 0.224 | 0.395 | 0.142 | 0.172 | 0.206 | 0.102 | 0.171 | 0.18 | 0.148 | 0.157 | 0.157 | 0.123 | 0.625 | 0.921 | 0.665 | 0.661 | 0.876
11 | NCI-H647 |  | 0.433 |  |  | 0.399 | 0.475 | 0.605 | 0.548 | 0.524 | 0.474 | 0.395 | 0.4 | 0.381 | 0.374 | 0.345 | 0.415 | 0.366 | 0.465 | 0.593 | 0.587
12 | NCI-H650 | 0.875 | 0.82 | 0.983 | 0.736 | 0.841 | 1.08 | 0.93 | 0.938 | 0.968 | 0.88 | 0.306 | 0.399 | 0.333 | 0.265 | 0.38 | 1.1 | 1.03 | 0.968 | 0.992 | 0.974
13 | NCI-H727 | 0.521 | 0.377 | 0.29 |  | 0.382 | 0.443 | 0.348 | 0.41 | 0.341 | 0.34 | 0.707 | 0.782 | 0.594 | 0.615 | 0.636 | 0.595 | 0.612 | 0.841 | 0.47 | 0.443
14 | NCI-H838 | 0.507 | 0.531 | 0.41 | 0.258 | 0.482 | 0.548 | 0.577 | 0.52 | 0.528 | 0.513 | 0.25 | 0.232 | 0.232 | 0.234 | 0.236 | 0.984 | 1.05 | 0.907 | 0.915 | 1.06
15 | NCI-H1355 | 0.541 | 0.414 | 0.361 | 0.293 | 0.453 | 0.457 | 0.482 | 0.48 | 0.374 | 0.399 | 0.395 | 0.427 | 0.41 | 0.412 | 0.443 | 0.776 | 0.912 | 0.845 | 0.66 | 0.799
16 | NCI-H1395 | 0.59 | 0.553 | 0.619 | 0.572 | 0.646 | 0.996 |  | 1.03 | 1.01 | 1 | 0.588 |  | 0.594 | 0.69 | 0.581 | 0.402 |  | 0.419 | 0.434 | 0.393
17 | NCI-H1437 | 0.511 | 0.404 | 0.395 | 0.336 | 0.439 | 0.597 | 0.46 | 0.555 | 0.519 | 0.399 | 0.358 | 0.32 | 0.292 | 0.318 | 0.327 | 1.06 | 1.18 | 1.11 | 1.1 | 1.06
18 | NCI-H1651 | 0.625 | 0.607 | 0.487 | 0.65 | 0.675 | 0.809 | 0.875 | 0.886 | 0.767 | 0.855 | 0.477 | 0.561 | 0.53 | 0.497 | 0.516 | 0.424 | 0.598 | 0.532 | 0.308 | 0.477
19 | NCI-H1666 | 0.569 | 0.402 | 0.417 | 0.498 | 0.501 | 0.909 | 0.764 | 0.77 | 0.607 | 0.772 | 0.684 | 0.665 | 0.64 | 0.627 | 0.662 | 0.908 | 1.06 | 0.909 | 0.757 | 0.917
20 | NCI-H1734 | 0.387 | 0.449 | 0.431 |  | 0.473 | 0.688 | 0.749 | 0.646 | 0.633 | 0.675 | 0.349 | 0.364 | 0.356 | 0.32 | 0.344 | 0.529 | 0.42 | 0.549 | 0.498 | 0.483
21 | NCI-H1755 | 0.384 | 0.377 | 0.372 | 0.19 | 0.371 | 0.745 | 0.793 | 0.755 | 0.771 | 0.841 | 0.469 | 0.449 | 0.403 | 0.478 | 0.532 | 0.503 | 0.431 | 0.472 | 0.383 | 0.453
22 | NCI-H1792 | 0.361 | 0.3 | 0.215 | 0.188 | 0.25 | 0.422 | 0.36 | 0.43 | 0.421 | 0.332 | 0.561 | 0.714 | 0.664 |  | 0.608 | 0.729 | 0.803 | 0.826 | 0.636 | 0.77
23 | NCI-H1793 | 0.329 | 0.304 | 0.428 |  | 0.328 | 0.497 |  | 0.39 | 0.352 | 0.607 | 0.331 |  | 0.349 | 0.335 | 0.339 | 0.468 |  | 0.631 | 0.404 | 0.348
24 | NCI-H1915 | 0.916 | 0.899 | 0.931 | 0.687 | 0.963 | 0.29 | 0.332 | 0.28 | 0.328 | 0.389 | 0.502 | 0.48 | 0.503 | 0.504 | 0.438 | 0.674 | 0.726 | 0.712 | 0.59 | 0.745
25 | NCI-H1944 | 0.361 | 0.335 | 0.325 |  | 0.328 | 0.35 | 0.397 | 0.387 | 0.387 | 0.32 | 0.315 | 0.325 | 0.328 | 0.287 | 0.226 | 0.555 | 0.569 | 0.537 | 0.381 | 0.381
26 | NCI-H1975 | 0.311 | 0.307 | 0.268 | 0.287 | 0.288 | 0.379 | 0.337 | 0.365 | 0.337 | 0.55 | 0.7 | 0.57 | 0.555 | 0.606 | 0.583 | 0.699 | 0.91 | 0.689 | 0.729 | 0.725
27 | NCI-H1993 | 0.837 | 0.808 | 0.708 | 0.765 | 0.834 | 0.506 | 0.519 | 0.533 | 0.336 | 0.546 | 0.614 | 0.281 | 0.586 | 0.524 | 0.543 | 0.897 | 0.628 | 0.679 | 0.808 | 0.971
